The test system of one assay is CFTR channel. Description: CFTR functional assessment, short circuit current (Ussing chamber) in CFBE cells stably expressing c.2988G>A. Format: cell-based, human. The following applies: CFBE c.2988G>A, Compound (I) treated cells, 10 μM ivacaftor acute, apical side. The text has this: WT CFTR-EMG-i14-i18, CFTR-EMG-i14-i18 harboring c.2988G>A, Flp-In-CFBE, and Flp-In-293 cells stably expressing WT-EMG and c.2988G>A EMG were generated. Both Flpin-293 and Flp-In-CFBE cells lack endogenous CFTR expression (CFBE41o-) and contain a single Flp recombinase target site. Co-transfection of EMG plasmid with pOG44 (a plasmid encoding Flp recombinase) allowed for genomic integration at the FRT site. Hygromycin was used for stable cell selection.
Assessment of CFTR channel function and response to Compound (I) was performed in CFBEs stably expressing c.2988G>A. Briefly, CFBE stable cell lines were plated on snapwell filters. When transepithelial resistance reached ˜200Ω (˜ 5-7 days) as measured using Voltammeter (Physiologic Instruments), cells were treated with Compound (I) at varying doses (0.3 μM to 10 μM) for next 3 days. Filters were mounted in Ussing chambers (Physiological Instruments). A high chloride solution was added to the basolateral chamber and a low chloride solution was added to the apical chamber. After equilibration of currents, 10 μM forskolin (Selleckchem) was added to the basolateral side to activate CFTR channels via cAMP signaling. Currents were allowed to plateau, followed by acute addition of 10 μM ivacaftor at apical side for CFTR potentiation (Selleckchem). Inhibition of CFTR was performed using 10 μM Inh-172 (Selleckchem) added to the apical chamber.
The ability of Compound (I) to rescue chloride channel function was also assessed. CF bronchial epithelial (CFBE) cell lines was generated to stably express the splicing mutation c.2988G>A. Cells were grown in monolayers on filters and treated with increasing doses of Compound (I) (0.3 μM-10 μM) or DMSO for 3 days. Chloride channel function was assessed by measuring short circuit current (Isc) on treated CFBE cells. Forskolin was added to initiate CFTR channel activity via cAMP-mediated signaling, with further channel activation by Ivacaftor and inhibition with Inh-172, a CFTR-specific inhibitor (FIG. 9C, representative Isc tracing). CFTR-specific change in current (ΔIsc±SD) allows for measurement of chloride channel function (FIG. 9C). […] Significant recovery of CFTR function (˜3 fold) was observed following treatment with Compound (I) at 1, 3, 6, and 10 μM for 3 days, with a maximal increase in CFTR function achieved using 3 μM of Compound (I) (ΔIsc=37.168±4.32 μA/cm^2, FIG. 9C).

Assay [1] relates to ELP1 exon 20. The following applies: cited from earlier work.
Assay [2] has as its system ELP1 exon 20. The following applies: cited from earlier work. The source holds these as a separate data set.

Data on two compounds can be found in patent US20230047208A1, “RNA Splicing Modulation” (The General Hospital Corporation, priority 2020, published 2023).

As for `CC(C)(C)c1cc(C(C)(C)C)c(NC(=O)c2c[nH]c3ccccc3c2=O)cc1O` [Ivacaftor, reference compound], the “improvement in CFTR function on acute addition of Ivacaftor” value in the assay on CFTR channel was approximately 2 fold.

As to `c1coc(CNc2ncnc3nc[nH]c23)c1` [kinetin, 6-furfurylaminopurine], in the assay on ELP1 exon 20 [1], the “doses needed to achieve inclusion of Exon 20 in vivo” value is on record as “extremely high doses are necessary”. In addition, in the assay with ELP1 exon 20 [2] (RNA sequencing after kinetin treatment), the “Percent Spliced In (PSI) change for ELP1 exon 20 splicing” value is reported as 0.57. Moreover, in the assay with ELP1 exon 20 [2] (RNA sequencing), the “additional exon-usage differences in response to kinetin” value is reported as 42, the “usage differences that induced skipping of the middle exon” value is 31 and the “usage differences that promoted inclusion of the middle exon” value is on record as 11.
